# Source: PubChem BioAssay (NCI)
#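 Assay format: 96-well plates, 48-hour exposure. GI50 = concentration required for 50% inhibition of growth. TGI marks complete inhibition of growth.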
# Experiments:
# Test in all cases: NCI-60 cell line screen, 48 h
# HCT-15 colon = tested on: HCT-15 colon
# SK-MEL-28 melanoma = tested on: SK-MEL-28 melanoma
# MDA-MB-435 = tested on: MDA-MB-435
# SNB-19 CNS = tested on: SNB-19 CNS
# SF-539 CNS = tested on: SF-539 CNS
# HOP-92 NSCLC = tested on: HOP-92 NSCLC
# MDA-MB-231 breast = tested on: MDA-MB-231 breast
# MALME-3M melanoma = tested on: MALME-3M melanoma
# HS 578T breast = tested on: HS 578T breast
# NCI-H460 lung = tested on: NCI-H460 lung
# SNB-75 CNS = tested on: SNB-75 CNS
# LOX IMVI melanoma = tested on: LOX IMVI melanoma
# T-47D breast = tested on: T-47D breast
# M14 melanoma = tested on: M14 melanoma
# OVCAR-4 ovarian = tested on: OVCAR-4 ovarian
# BT-549 breast = tested on: BT-549 breast
# CCRF-CEM leukemia = tested on: CCRF-CEM leukemia
# U251 CNS = tested on: U251 CNS
# TK-10 renal = tested on: TK-10 renal
# OVCAR-8 ovarian = tested on: OVCAR-8 ovarian
# SK-MEL-5 melanoma = tested on: SK-MEL-5 melanoma
# SN12C renal = tested on: SN12C renal
# NCI-H226 lung = tested on: NCI-H226 lung
# HCC-2998 colon = tested on: HCC-2998 colon
# SF-268 CNS = tested on: SF-268 CNS
# EKVX NSCLC = tested on: EKVX NSCLC
# CAKI-1 renal = tested on: CAKI-1 renal
# NCI/ADR-RES ovarian = tested on: NCI/ADR-RES ovarian
# MCF7 breast = tested on: MCF7 breast
# SK-MEL-2 melanoma = tested on: SK-MEL-2 melanoma
# OVCAR-5 ovarian = tested on: OVCAR-5 ovarian
# HT29 colon = tested on: HT29 colon
# NCI-H23 lung = tested on: NCI-H23 lung
# A549 NSCLC = tested on: A549 NSCLC
# PC-3 prostate = tested on: PC-3 prostate
# RPMI-8226 leukemia = tested on: RPMI-8226 leukemia
# HCT-116 colon = tested on: HCT-116 colon
# COLO 205 colon = tested on: COLO 205 colon
# HL-60(TB) leukemia = tested on: HL-60(TB) leukemia
# SK-OV-3 ovarian = tested on: SK-OV-3 ovarian
# SW-620 colon = tested on: SW-620 colon
# IGROV1 ovarian = tested on: IGROV1 ovarian
# SF-295 CNS = tested on: SF-295 CNS
# UO-31 renal = tested on: UO-31 renal
# UACC-62 melanoma = tested on: UACC-62 melanoma
# DU-145 prostate = tested on: DU-145 prostate
# UACC-257 melanoma = tested on: UACC-257 melanoma
# 786-0 renal = tested on: 786-0 renal
# NCI-H522 lung = tested on: NCI-H522 lung
# OVCAR-3 ovarian = tested on: OVCAR-3 ovarian
# A498 renal = tested on: A498 renal
# HOP-62 NSCLC = tested on: HOP-62 NSCLC
# MOLT-4 leukemia = tested on: MOLT-4 leukemia
# ACHN renal = tested on: ACHN renal
# KM12 colon = tested on: KM12 colon
structure (smiles),measurement,setting,value
C[C@H](NC(=O)c1c(C(F)F)nn(C)c1Oc1cccc(C(F)(F)F)c1)c1ccc(C(=O)O)cc1,GI50,HCT-15 colon,> 100 µM
same,TGI,HCT-15 colon,> 100 µM
same,GI50,SK-MEL-28 melanoma,> 100 µM
same,TGI,SK-MEL-28 melanoma,> 100 µM
same,GI50,MDA-MB-435,> 100 µM
same,TGI,MDA-MB-435,> 100 µM
same,GI50,SNB-19 CNS,> 100 µM
same,TGI,SNB-19 CNS,> 100 µM
same,GI50,SF-539 CNS,> 100 µM
same,TGI,SF-539 CNS,> 100 µM
same,GI50,HOP-92 NSCLC,6.94 µM
same,TGI,HOP-92 NSCLC,> 100 µM
same,GI50,MDA-MB-231 breast,> 100 µM
same,TGI,MDA-MB-231 breast,> 100 µM
same,GI50,MALME-3M melanoma,> 100 µM
same,TGI,MALME-3M melanoma,> 100 µM
same,GI50,HS 578T breast,> 100 µM
same,TGI,HS 578T breast,> 100 µM
same,GI50,NCI-H460 lung,> 100 µM
same,TGI,NCI-H460 lung,> 100 µM
same,GI50,SNB-75 CNS,> 100 µM
same,TGI,SNB-75 CNS,> 100 µM
same,GI50,LOX IMVI melanoma,> 100 µM
same,TGI,LOX IMVI melanoma,> 100 µM
same,GI50,T-47D breast,> 100 µM
same,TGI,T-47D breast,> 100 µM
same,GI50,M14 melanoma,> 100 µM
same,TGI,M14 melanoma,> 100 µM
same,GI50,OVCAR-4 ovarian,> 100 µM
same,TGI,OVCAR-4 ovarian,> 100 µM
same,GI50,BT-549 breast,> 100 µM
same,TGI,BT-549 breast,> 100 µM
same,GI50,CCRF-CEM leukemia,> 100 µM
same,TGI,CCRF-CEM leukemia,> 100 µM
same,GI50,U251 CNS,> 100 µM
same,TGI,U251 CNS,> 100 µM
same,GI50,TK-10 renal,> 100 µM
same,TGI,TK-10 renal,> 100 µM
same,GI50,OVCAR-8 ovarian,> 100 µM
same,TGI,OVCAR-8 ovarian,> 100 µM
same,GI50,SK-MEL-5 melanoma,> 100 µM
same,TGI,SK-MEL-5 melanoma,> 100 µM
same,GI50,SN12C renal,> 100 µM
same,TGI,SN12C renal,> 100 µM
same,GI50,NCI-H226 lung,> 100 µM
same,TGI,NCI-H226 lung,> 100 µM
same,GI50,HCC-2998 colon,> 100 µM
same,TGI,HCC-2998 colon,> 100 µM
same,GI50,SF-268 CNS,> 100 µM
same,TGI,SF-268 CNS,> 100 µM
same,GI50,EKVX NSCLC,> 100 µM
same,TGI,EKVX NSCLC,> 100 µM
same,GI50,CAKI-1 renal,> 100 µM
same,TGI,CAKI-1 renal,> 100 µM
same,GI50,NCI/ADR-RES ovarian,> 100 µM
same,TGI,NCI/ADR-RES ovarian,> 100 µM
same,GI50,MCF7 breast,> 100 µM
same,TGI,MCF7 breast,> 100 µM
same,GI50,SK-MEL-2 melanoma,> 100 µM
same,TGI,SK-MEL-2 melanoma,> 100 µM
same,GI50,OVCAR-5 ovarian,> 100 µM
same,TGI,OVCAR-5 ovarian,> 100 µM
same,GI50,HT29 colon,> 100 µM
same,TGI,HT29 colon,> 100 µM
same,GI50,NCI-H23 lung,> 100 µM
same,TGI,NCI-H23 lung,> 100 µM
same,GI50,A549 NSCLC,> 100 µM
same,TGI,A549 NSCLC,> 100 µM
same,GI50,PC-3 prostate,> 100 µM
same,TGI,PC-3 prostate,> 100 µM
same,GI50,RPMI-8226 leukemia,> 100 µM
same,TGI,RPMI-8226 leukemia,> 100 µM
same,GI50,HCT-116 colon,> 100 µM
same,TGI,HCT-116 colon,> 100 µM
same,GI50,COLO 205 colon,> 100 µM
same,TGI,COLO 205 colon,> 100 µM
same,GI50,HL-60(TB) leukemia,> 100 µM
same,TGI,HL-60(TB) leukemia,> 100 µM
same,GI50,SK-OV-3 ovarian,> 100 µM
same,TGI,SK-OV-3 ovarian,> 100 µM
same,GI50,SW-620 colon,> 100 µM
same,TGI,SW-620 colon,> 100 µM
same,GI50,IGROV1 ovarian,> 100 µM
same,TGI,IGROV1 ovarian,> 100 µM
same,GI50,SF-295 CNS,> 100 µM
same,TGI,SF-295 CNS,> 100 µM
same,GI50,UO-31 renal,> 100 µM
same,TGI,UO-31 renal,> 100 µM
same,GI50,UACC-62 melanoma,> 100 µM
same,TGI,UACC-62 melanoma,> 100 µM
same,GI50,DU-145 prostate,> 100 µM
same,TGI,DU-145 prostate,> 100 µM
same,GI50,UACC-257 melanoma,> 100 µM
same,TGI,UACC-257 melanoma,> 100 µM
same,GI50,786-0 renal,> 100 µM
same,TGI,786-0 renal,> 100 µM
same,GI50,NCI-H522 lung,> 100 µM
same,TGI,NCI-H522 lung,> 100 µM
same,GI50,OVCAR-3 ovarian,> 100 µM
same,TGI,OVCAR-3 ovarian,> 100 µM
same,GI50,A498 renal,> 100 µM
same,TGI,A498 renal,> 100 µM
same,GI50,HOP-62 NSCLC,> 100 µM
same,TGI,HOP-62 NSCLC,> 100 µM
same,GI50,MOLT-4 leukemia,> 100 µM
same,TGI,MOLT-4 leukemia,> 100 µM
same,GI50,ACHN renal,> 100 µM
same,TGI,ACHN renal,> 100 µM
same,GI50,KM12 colon,> 100 µM
same,TGI,KM12 colon,> 100 µM
